One compound from BindingDB's records for PubMed 33569941 (n/a, 2021) can be followed below.

What is called EC50 is the concentration needed to bring the measured effect to its halfway point.

For the experiment, the target named is Tumor necrosis factor (Homo sapiens, UniProt P01375). Nature of the experiment: Inhibition of human TNF-alpha secretion stimulated by LPS.
Chain of Tumor necrosis factor (P01375 whole entry): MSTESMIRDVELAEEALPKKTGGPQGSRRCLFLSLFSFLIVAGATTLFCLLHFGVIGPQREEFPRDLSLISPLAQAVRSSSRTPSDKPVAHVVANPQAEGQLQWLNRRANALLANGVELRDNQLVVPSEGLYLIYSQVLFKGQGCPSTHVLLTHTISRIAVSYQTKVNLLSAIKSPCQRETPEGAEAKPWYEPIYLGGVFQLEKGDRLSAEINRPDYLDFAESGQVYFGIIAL

As for `Cc1ccc(Cl)cc1Nc1cc(Cl)c2nonc2c1[N+](=O)[O-]`, a half-maximal response (EC50) required 0.3 µM.
